Assay results published in US11667602B2, “Compounds and their use” (AstraZeneca AB, priority 2020, dated 2023).
pEC50: −log10 of the molar value. ≈ marks a conversion by molar mass, not a printed value. Like-named read-outs stand apart in the source and are kept apart here.

Columns and labels:
[1] = Human Plasma Protein Binding (Test B); format: in vitro ADME; settings: fraction unbound (fu)
In short: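 Human plasma protein binding run per the published Wernevik et al. (2020) integrated DMPK panel protocol. Values are fraction unbound (fu, % free); repeat runs averaged arithmetically.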

[2] = Human Liver Microsomal Stability (Test C); format: in vitro ADME; settings: for Test C Human Liver Microsomal Stability Clint: human liver microsomes; for microsomal CLint: human, liver microsomes
In short: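 Human liver microsome incubation per the Wernevik et al. integrated DMPK panel protocol. Intrinsic clearance reported as CLint in μl/min/mg protein, averaged arithmetically over repeat runs.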

[3] = Human Hepatocyte Stability (Test D); format: in vitro ADME; settings: geometric mean if run multiple times; for Test D Human Hepatocyte Stability Clint: human hepatocytes; for hepatocyte CLint at 1 µM: human, cryopreserved pooled human hepatocytes (LiverPool 10-Donor)
In short: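 Pooled 10-donor cryopreserved human hepatocytes (≥80% viable) in L-15 medium at 0.25×10^6 cells per 0.25 mL well. Compound added from 100 μM acetonitrile solution; incubated at 37 °C with shaking, acetonitrile-quenched, LC-MS analysed. Clint (μL/min/10^6 cells) from ln % parent vs time slope; geometric mean of repeat runs.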

[4] = Rat Hepatocyte Stability (Test E); format: in vitro ADME; settings: geometric mean if run multiple times; for Test E Rat Hepatocyte Stability Clint: rat hepatocytes; for hepatocyte CLint: rat, hepatocytes
In short: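 Run per the published AstraZeneca-type rat hepatocyte stability protocol (Wernevik et al. panel). Values are mean intrinsic clearance, Clint in μl/min/10^6 cells; geometric mean used for repeated runs.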

Solubility (Test F) = format: physicochemical; settings: arithmetic mean if run multiple times
Procedure: The assay was conducted according to the Solubility Assay described in pages 164-167 of Wernevik, J. et al., “A Fully Integrated Assay Panel for Early Drug Metabolism and Pharmacokinetics Profiling”, Assay and Drug Development Technologies, 2020, 18(4), 157-179. Data are reported in Table 36 as solubility ([…]. Where the assay was run multiple times for the same compound, the arithmetic mean is reported.

human RXFP1 = molecular target: T1, human RXFP1 (Homo sapiens, UniProt Q9HBX9); assay: RXFP1 Hu cAMP (Test A); format: cell-based; set-up: expressed in transfected cells; host or cells: Jump-In T-REx CHO-K1 cells (ThermoFisher), induced with 10 ng/ml doxycycline for 24 h
T1 sequence (Q9HBX9 1-757): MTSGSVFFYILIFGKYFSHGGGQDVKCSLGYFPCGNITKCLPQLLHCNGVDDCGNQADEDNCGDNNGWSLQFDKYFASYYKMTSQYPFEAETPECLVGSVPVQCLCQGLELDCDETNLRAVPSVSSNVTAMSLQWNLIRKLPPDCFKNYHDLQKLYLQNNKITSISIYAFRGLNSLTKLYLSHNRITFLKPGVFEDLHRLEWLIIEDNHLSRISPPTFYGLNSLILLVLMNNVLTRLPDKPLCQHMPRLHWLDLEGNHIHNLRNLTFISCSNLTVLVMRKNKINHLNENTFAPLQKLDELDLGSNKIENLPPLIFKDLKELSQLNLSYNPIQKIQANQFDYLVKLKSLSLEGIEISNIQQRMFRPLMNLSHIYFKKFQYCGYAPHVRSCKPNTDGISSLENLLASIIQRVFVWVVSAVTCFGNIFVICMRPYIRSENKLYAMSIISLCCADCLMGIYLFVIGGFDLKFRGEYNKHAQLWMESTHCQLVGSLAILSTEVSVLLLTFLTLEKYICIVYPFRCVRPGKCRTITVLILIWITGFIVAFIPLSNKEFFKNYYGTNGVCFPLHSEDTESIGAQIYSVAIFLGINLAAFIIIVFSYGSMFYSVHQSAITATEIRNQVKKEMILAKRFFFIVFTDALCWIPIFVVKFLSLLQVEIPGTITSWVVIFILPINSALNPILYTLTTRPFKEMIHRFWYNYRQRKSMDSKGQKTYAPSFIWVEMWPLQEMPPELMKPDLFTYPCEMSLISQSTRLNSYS
In short: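 Cells: CHO-K1 stably carrying human RXFP1, expressed after 24 h 10 ng/ml doxycycline; 0.5 mM IBMX final, HTRF detection after 2 h at room temperature.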

[5] = RXFP1 Hu cAMP, read-out: Test A EC50

Compound	Test B Human Plasma Protein Binding (% free) [1]	Test C Human Liver Microsomal Stability Clint [2]	Test D Human Hepatocyte Stability Clint [3]	Test E Rat Hepatocyte Stability Clint [4]	solubility (Solubility (Test F))	Test A Sinf (human RXFP1; RXFP1 Hu cAMP)	pEC50 (human RXFP1; [5])	microsomal CLint [2]	hepatocyte CLint at 1 µM [3]	hepatocyte CLint [4]	pEC50 (human RXFP1; Test A EC50, RXFP1 Hu cAMP)
COc1cc(F)c(O[C@H]2CC[C@@](C)(C(=O)O)CC2)cc1C(=O)N[C@@H]1COC[C@@H]1C(=O)Nc1cccc(S(=O)(=O)C(F)(F)F)c1 (relative stereo) [Example 561, (1R,4s)-4-(2-Fluoro-4-methoxy-5-(((3S*,4R*)-4-((3-((trifluoromethyl)sulfonyl)phenyl)carbamoyl)tetrahydrofuran-3-yl)carbamoyl)phenoxy)-1-methylcyclohexane-1-carboxylic acid]	3.7 % free	17 µL/min/mg	6.3 μL/min/10^6 cells	55 μL/min/10^6 cells	930 µM (≈ 601 µg/mL)	104%	6.89				
COc1cc(C#N)c(O[C@H]2CC[C@@](C)(C(=O)O)CC2)cc1C(=O)N[C@H]1C2CCC(CC2)[C@H]1C(=O)NCC1(C)CCC1 (relative stereo) [Example 539, (1R,4s)-4-(2-Cyano-4-methoxy-5-(((2S*,3R*)-3-(((1-methylcyclobutyl)methyl)carbamoyl)bicyclo[2.2.2]octan-2-yl)carbamoyl)phenoxy)-1-methylcyclohexane-1-carboxylic acid]	3.2 % free	63 µL/min/mg	64 μL/min/10^6 cells	28 μL/min/10^6 cells	700 µM (≈ 396 µg/mL)	102%	8.51				
CC1(CNC(=O)[C@H]2[C@H]3CC[C@H](C3)[C@H]2NC(=O)c2cc(O[C@H]3CC[C@@](C)(C(=O)O)CC3)c(C#N)cc2F)CCC1 [Example 413]	1.5 % free				820 µM (≈ 443 µg/mL)	107%		9.3 µL/min/mg	4.5 µL/min/1e6 cells	21 µL/min/1e6 cells	7.80
COc1cc(F)c(O[C@H]2C[C@H](C(=O)O)C2)cc1C(=O)NC1[C@H]2CC[C@H](C2)[C@@H]1C(=O)Nc1cccc(S(=O)(=O)C(F)(F)F)c1 (stereo partly drawn) [Example 443]	1.5 % free				760 µM (≈ 478 µg/mL)	101%	6.27	31 µL/min/mg	26 µL/min/1e6 cells	21 µL/min/1e6 cells	
COc1cc(F)c(-c2ccc(C[C@@H](C(=O)O)N(C)C)cc2)cc1C(=O)N[C@@H]1[C@H]2CC[C@H](C2)[C@@H]1C(=O)Nc1cccc(S(=O)(=O)C(F)(F)F)c1 (racemic) [Example 289, (S)-2-(Dimethylamino)-3-(2′-fluoro-4′-methoxy-5′-(((1RS,2SR,3RS,4SR)-3-((3-((trifluoromethyl)sulfonyl)phenyl)carbamoyl)bicyclo[2.2.1]heptan-2-yl)carbamoyl)-[1,1′-biphenyl]-4-yl)propanoic acid]	1 % free				36 µM (≈ 25.4 µg/mL)	112%	6.33	21 µL/min/mg	7.2 µL/min/1e6 cells	11 µL/min/1e6 cells	
COc1cc(F)c(O[C@H]2CC[C@@](C)(C(=O)O)CC2)cc1C(=O)Nc1ccccc1C(=O)NCC1(C)CCC1 [Example 143, (1s,4s)-4-(2-Fluoro-4-methoxy-5-((2-(((1-methylcyclobutyl)methyl)-carbamoyl)phenyl)carbamoyl)phenoxy)-1-methylcyclohexane-1-carboxylic acid]	0.68 % free				1.6 µM (≈ 0.843 µg/mL)	130%		< 3 µL/min/mg	6.9 µL/min/1e6 cells	24 µL/min/1e6 cells	
COc1cc(F)c(O[C@H]2CC[C@@H](C(=O)O)CC2)cc1C(=O)N[C@H]1[C@@H](C(=O)Nc2ccc(F)c(S(F)(F)(F)(F)F)c2)[C@@H]2C=C[C@H]1C2 [Example 488, (1S,4s)-4-(2-fluoro-5-(((1R,2R,3S,4S)-3-((4-fluoro-3-(pentafluoro-λ6-sulfaneyl)phenyl)carbamoyl)bicyclo[2.2.1]hept-5-en-2-yl)carbamoyl)-4-methoxyphenoxy)cyclohexane-1-carboxylic acid]	0.13 % free				1000 µM (≈ 667 µg/mL)	115%	> 8.44	23 µL/min/mg	12 µL/min/1e6 cells	22 µL/min/1e6 cells	
COc1cc(F)c(O[C@H]2CC[C@@](C)(C(=O)O)CC2)cc1C(=O)N[C@@H]1[C@H]2CC[C@H](C2)[C@@H]1C(=O)NC12CC(F)(C1)C2 [Example 608]	3.5 % free				880 µM (≈ 481 µg/mL)	115%	7.12	20 µL/min/mg	3.4 µL/min/1e6 cells	8.2 µL/min/1e6 cells	
COc1cc(F)c(OC2CCC(C)(C(=O)O)CC2)cc1C(=O)NC1CC(OC)CC1C(=O)Nc1cccc(S(=O)(=O)C(F)(F)F)c1 (single isomer, unassigned) [Example 524, (1R,4s)-4-(2-Fluoro-4-methoxy-5-(((1S*,2R*,4R*)-4-methoxy-2-((3-((trifluoromethyl)sulfonyl)phenyl)carbamoyl)cyclopentyl)carbamoyl)phenoxy)-1-methylcyclohexane-1-carboxylic acid]	3.6 % free				920 µM (≈ 621 µg/mL)	110%	7.60	16 µL/min/mg	6.2 µL/min/1e6 cells	23 µL/min/1e6 cells	
COc1cc(F)c(-c2ccc(CCS(N)(=O)=O)cc2)cc1C(=O)N[C@H]1[C@H]2CC[C@H](C2)[C@H]1C(=O)Nc1cccc(S(=O)(=O)C(F)(F)F)c1 (single isomer, unassigned) [Example 326]	<0.35 % free				8 µM (≈ 5.58 µg/mL)	114%	6.96	65 µL/min/mg	8 µL/min/1e6 cells	4.6 µL/min/1e6 cells	
